{"source": "patent US9399145B2", "about": "“Nanoscale neuromodulating platform for retina neuron activation apparatus and method” (The Board of Trustees of the University of Illinois, priority 2005, dated 2016)", "key": {"[1]": {"target": "T1, α1β2γ2 GABAARs (rat α1, rat β2 and human γ2S) (UniProt P18507+P62813+P63138)", "T1 construct": "expressed in transfected cells; host or cells: Xenopus laevis oocytes", "experiment": "Two-electrode voltage clamp of α1β2γ2 GABAAR-expressing Xenopus oocytes", "assay_type": "cell-based", "text": "Purple and gray bars indicate periods of presentation of UV light (purple) and high-intensity visible light (High-Vis) (gray), respectively. […] These amplitude determination conditions are denoted by numbers beneath the waveform in FIG. 35d.\nIn each of the MPC088 experiments, the cis-dominant form was generated by UV light during static bathing. […] Numbers beneath the waveform in FIG. 2(c) denote amplitude determination conditions for that experiment.\nOocytes expressing α1β2γ2 receptors (rat α1, rat β2 and human γ2S) were prepared and studied by two-electrode voltage-clamp recording^58 (holding potential: −70 mV; amplifier: GeneClamp500B; Axon Instruments, Foster City, Calif.). Unless otherwise indicated, oocytes were superfused with Ringer solution (physiological saline) at a rate of ˜1 mL/min. The experiments of FIGS. 35d-e, 36c-e and 47 involved periods of static bathing, i.e., halted superfusion. The γ2(A79C) subunit was prepared by site-directed mutagenesis. Oocyte electrophysiological experiments were carried out in room light. A UV light-emitting diode (peak wavelength: 365 nm; Hamamatsu Photonics, Japan) and a microscope illuminator (white light; Schott Fostec, Auburn, N.Y.) provided UV and visible stimulating light. As measured at the position of the oocyte, the intensity of the UV light at 365 nm was 220 μW/mm^2. At 440 nm, the nominal strength of the visible (white) light (referred to as high-intensity visible light) was 28 μW/mm^2, and that of the ambient room illumination was 0.045 μW/mm^2. In all experiments, low-intensity visible light from the microscope illuminator (3 μW/mm^2 at 440 nm) was present at all times except those involving high-intensity visible illumination. Electrophysiological data were obtained using Clampex 8.2 (Axon Instruments), analyzed using Clampfit 10.0 (Axon Instruments) and OriginPro7.5 (OriginLab, Northampton, Mass.). All statistical analysis employed a two-sample t-test."}, "α1β2γ2 GABAARs": {"target": "T2, α1β2γ2 GABAARs (UniProt P18507+P62813+P63138)", "T2 construct": "expressed in transfected cells; host or cells: Xenopus laevis oocytes", "assay_type": "binding", "conditions": "1 μM competitor added to 10 μM 23 and 3 μM GABA", "text": "Tomlinson and Rosenthal, the linear chain of 22 is further extended by an amide-linked PEG5000 that is terminated by biotin. […] Bright-field images of the (opaque) oocytes illustrate the focus of the oocyte border during fluorescence microscopy."}, "[2]": {"system": "GABAARs of cerebellar PNs", "experiment": "Test for direct agonist activity on Purkinje neurons (recirculating MPC088, no exogenous GABA)", "assay_type": "cell-based, mouse", "conditions": "30 μM gabazine added to 30 μM MPC088", "procedure": "To test for direct agonist activity of MPC088 on PNs, cerebellar slices were perfused with recirculating 30 μM MPC088 (the maximal MPC088 concentration that could be reliably maintained solubilized in bicarbonate-buffered solution). MPC088 was converted to cis-dominant form by a 2-min exposure to UV light (LED, 365 nm/160 mW, Mouser, Inc., Mansfield, Tex.; LED driver, 700 mA BuckPuck DC Driver, Quadica Developments, Inc., Brantford, Ontario, Canada), before its dilution into the recirculating external solution. The same LED was then used to continuously UV-illuminate the recirculating solution for the duration of the experiment. Whole-cell voltage clamp recordings were obtained from PNs and determined the change in membrane current produced by alternating blue and UV illumination of the slice, as in the FIG. 40 experiments. […] The temporal sequence of illumination differed among the experiments (e.g., only the cell in a received multiple blue/UV exposures), but the data plotted are the amplitudes from the blue to UV transition (in the case of the cell in a, this is the blue/UV transition from the first of the three exposures). Yellow-filled data points indicate results from the experiment in a. Each data point is the average obtained from 4-10 consecutive recordings. […] Error bars represent the SEM (FIG. 42b)."}, "Hydrophobicity (log P)": {"experiment": "Hydrophobicity (log P)", "assay_type": "physicochemical"}, "α4β3δ GABAAR": {"target": "T3, α4β3δ GABAAR (Homo sapiens, UniProt P28472+P48169)", "T3 construct": "expressed in transfected cells; host or cells: Xenopus oocytes", "experiment": "Two-electrode voltage clamp of α4β3δ GABAAR-expressing oocytes", "assay_type": "cell-based", "conditions": "200 μM propofol and 50 nM GABA", "text": "Propofol is known to modulate GABAA receptors that contain a β subunit. […] Data in each group was obtained from 4 oocytes."}, "[3]": {"system": "GABAARs of cerebellar PNs", "experiment": "Whole-cell voltage clamp of cerebellar Purkinje neurons in slices, GABA-evoked currents with UV/blue light", "assay_type": "cell-based, mouse", "conditions": "10 μM GABA plus 300 μM propofol"}}, "data": [{"compound": "CN1C(=O)CN=C(c2ccccc2)c2cc(Cl)ccc21", "note": "[diazepam, reference compound]", "values": [{"measurement": "potentiation factor of the 3 μM GABA response", "setting": "[1]", "value": "1.92±0.36"}, {"measurement": "effect on fluorescent border from binding of 23 (competition)", "setting": "α1β2γ2 GABAARs", "value": "virtually eliminated"}]}, {"compound": "COc1ccc(-c2ccc(=N)n(CCCC(=O)O)n2)cc1", "note": "[gabazine, reference compound]", "values": [{"measurement": "average current remaining relative to the pre-gabazine current", "setting": "[2]", "value": "11±3", "unit": "%"}, {"measurement": "effect of antagonist on the MPC088-elicited response", "setting": "[1]; picrotoxin 100 μg, gabazine 30 μg, bicuculline 100 μM (so in the source)", "value": "not sensitive"}]}, {"compound": "CC(C)c1cccc(C(C)C)c1O", "note": "[propofol, reference compound]", "values": [{"measurement": "logP", "setting": "Hydrophobicity (log P)", "value": "~4"}, {"measurement": "response relative to the saturating GABA-alone response", "setting": "α4β3δ GABAAR", "value": "1.2±0.1", "unit": "fold"}, {"measurement": "maximum current of direct activation relative to the 100 μM GABA response", "setting": "[1]", "value": "about 40%"}, {"measurement": "light-induced current change", "setting": "[3]", "value": "little or no light-induced current change"}]}]}
